Assay results taken from patent publication US9113629B2, “4-amino-6-(4-substituted-phenyl)-picolinates and 6-amino-2-(4-substituted-phenyl)-pyrimidine-4-carboxylates and their use as herbicides” (DOW AGROSCIENCES LLC, priority 2013, dated 2015).

Legend:
[1] = Post-emergent Test III, herbicidal activity in wheat and barley; type: in vivo, Lolium multiflorum, Lolium rigidum; conditions: Lolium multiflorum, post-emergence, 504 h, read-out: Visual Growth Reduction (%) 21 Days After Application LOLSS; for pest or weed control at 35 g/ha: 35 g ai/ha; for pest or weed control at 70 g/ha: 70 g ai/ha; for pest or weed control at 140 g/ha: 140 g ai/ha
Description: (§1) Post-emergent Test III. Seeds of the desired test plant species were planted in Sun Gro MetroMix® 306 planting mixture, which typically has a pH of 6.0 to 6.8 and an organic matter content of about 30 percent, in plastic pots with a surface area of 103.2 square centimeters (cm^2). When required to ensure good germination and healthy plants, a fungicide treatment and/or other chemical or physical treatment was applied. The plants were grown for 7-36 days (d) in a greenhouse with an approximate 14 hour (h) photoperiod which was maintained at about 18° C. during the day and 17° C. during the night. Nutrients and water were added on a regular basis and supplemental lighting was provided with overhead metal halide 1000-Watt lamps as necessary. The plants were employed for testing when they reached the second or third true leaf stage.
(§2) A weighed amount, determined by the highest rate to be tested, of each test compound was placed in a 25 mL glass vial and was dissolved in 4 mL of a 97:3 v/v mixture of acetone and DMSO to obtain concentrated stock solutions. […] The concentrated stock solutions obtained were diluted with 20 mL of an aqueous mixture containing acetone, water, isopropyl alcohol, DMSO, Agri-Dex crop oil concentrate, and X-77 surfactant in a 48:39:10:1.5:1.5:0.02 v/v ratio to obtain spray solutions containing the highest application rates. Additional application rates were obtained by serial dilution of 12 mL of the high rate solution into a solution containing 2 mL of 97:3 v/v mixture of acetone and DMSO and 10 mL of an aqueous mixture containing acetone, water, isopropyl alcohol, DMSO, Agri-Dex crop oil concentrate, and X-77 surfactant in a 48:39:10:1.5:1.5:0.02 v/v ratio to obtain ½×, ¼×, ⅛× and 1/16× rates of the high rate. Compound requirements are based upon a 12 mL application volume at a rate of 187 liters per hectare (L/ha). Formulated compounds were applied to the plant material with an overhead Mandel track sprayer equipped with 8002E nozzles calibrated to deliver 187 L/ha over an application area of 0.503 square meters at a spray height of 18 inches (43 cm) above the average plant canopy height. Control plants were sprayed in the same manner with the solvent blank.
(§3) The treated plants and control plants were placed in a greenhouse as described above and watered by subirrigation to prevent wash-off of the test compounds. After 21 d, the condition of the test plants as compared with that of the untreated plants was determined visually and scored on a scale of 0 to 100 percent where 0 corresponds to no injury and 100 corresponds to complete kill.
(§4) By applying the well-accepted probit analysis as described by J. Berkson in Journal of the American Statistical Society, 48, 565 (1953) and by D. Finney in “Probit Analysis” Cambridge University Press (1952), herbicidal injury of a specific compound at various rates can be used to calculate GR20, GR50, GR80 and GR90 values, which are defined as growth reduction factors that correspond to the effective dose of herbicide required to provide plant growth reduction (GR) of 20 percent, 50 percent, 80 percent and 90 percent, respectively. Probit analysis was applied to data collected from multiple dose rates of individual compounds utilizing the procedures explained in the following examples. The analysis of those dose rates is captured in the following tables.

[2] = test system: APESV: bentgrass (Apera spica-venti); assay: as above; type: in vivo; conditions: for pest or weed control at 35 g/ha / pest or weed control at 70 g/ha / pest or weed control at 140 g/ha: Apera spica-venti, post-emergence, 504 h, read-out: Visual Growth Reduction (%) 21 Days After Application APESV; for pest or weed control at 35 g/ha: 35 g ai/ha; for pest or weed control at 70 g/ha: 70 g ai/ha; for pest or weed control at 140 g/ha: 140 g ai/ha; for GR50 APESV / GR80 APESV: probit analysis, 21 days after application; for GR50 APESV: dose for growth reduction of 50 percent; for GR80 APESV: dose for growth reduction of 80 percent
Description: as §1, §2, §3, §4

[3] = test system: HORSS: barley, including spring and winter (Hordeum vulgare); assay: as above; type: in vivo; conditions: for pest or weed control at 35 g/ha / pest or weed control at 70 g/ha / pest or weed control at 140 g/ha: Hordeum vulgare, post-emergence, 504 h, read-out: Visual Growth Reduction (%) 21 Days After Application HORSS; for pest or weed control at 35 g/ha: 35 g ai/ha; for pest or weed control at 70 g/ha: 70 g ai/ha; for pest or weed control at 140 g/ha: 140 g ai/ha; for GR20 HORSS: probit analysis, dose for growth reduction of 20 percent, 21 days after application, crop
Description: as §1, §2, §3, §4

[4] = test system: KCHSC: kochia (Kochia scoparia); assay: as above; type: in vivo; conditions: for pest or weed control at 35 g/ha / pest or weed control at 70 g/ha / pest or weed control at 140 g/ha: Bassia scoparia, post-emergence, 504 h, read-out: Visual Growth Reduction (%) 21 Days After Application KCHSC; for pest or weed control at 35 g/ha: 35 g ai/ha; for pest or weed control at 70 g/ha: 70 g ai/ha; for pest or weed control at 140 g/ha: 140 g ai/ha; for GR50 KCHSC / GR80 KCHSC: probit analysis, 21 days after application; for GR50 KCHSC: dose for growth reduction of 50 percent; for GR80 KCHSC: dose for growth reduction of 80 percent
Description: as §1, §2, §3, §4

[5] = test system: LOLSS: ryegrass including, Italian ryegrass (Lolium multiflorum), rigid ryegrass (Lolium rigidum), annual ryegrass (Lolium multiflorum subsp. Gaudini); assay: as above; type: in vivo; conditions: probit analysis, 21 days after application; for GR50 LOLSS: dose for growth reduction of 50 percent; for GR80 LOLSS: dose for growth reduction of 80 percent
Description: as §1, §2, §3, §4

[6] = test system: MATSS: scented mayweed (Matricaria chamomilla), pineappleweed (Matricaria matricarioides); assay: as above; type: in vivo; conditions: for pest or weed control at 35 g/ha / pest or weed control at 70 g/ha / pest or weed control at 140 g/ha: Matricaria chamomilla, post-emergence, 504 h, read-out: Visual Growth Reduction (%) 21 Days After Application MATSS; for pest or weed control at 35 g/ha: 35 g ai/ha; for pest or weed control at 70 g/ha: 70 g ai/ha; for pest or weed control at 140 g/ha: 140 g ai/ha; for GR50 MATSS / GR80 MATSS: probit analysis, 21 days after application; for GR50 MATSS: dose for growth reduction of 50 percent; for GR80 MATSS: dose for growth reduction of 80 percent
Description: as §1, §2, §3, §4

[7] = test system: SETVI: green foxtail (Setaria viridis); assay: as above; type: in vivo; conditions: for pest or weed control at 35 g/ha / pest or weed control at 70 g/ha / pest or weed control at 140 g/ha: Setaria viridis, post-emergence, 504 h, read-out: Visual Growth Reduction (%) 21 Days After Application SETVI; for pest or weed control at 35 g/ha: 35 g ai/ha; for pest or weed control at 70 g/ha: 70 g ai/ha; for pest or weed control at 140 g/ha: 140 g ai/ha; for GR50 SETVI / GR80 SETVI: probit analysis, 21 days after application; for GR50 SETVI: dose for growth reduction of 50 percent; for GR80 SETVI: dose for growth reduction of 80 percent
Description: as §1, §2, §3, §4

[8] = test system: TRZSS: wheat, including spring and winter (Triticum aestivum); assay: as above; type: in vivo; conditions: for pest or weed control at 35 g/ha / pest or weed control at 70 g/ha / pest or weed control at 140 g/ha: Triticum aestivum, post-emergence, 504 h, read-out: Visual Growth Reduction (%) 21 Days After Application TRZSS; for pest or weed control at 35 g/ha: 35 g ai/ha; for pest or weed control at 70 g/ha: 70 g ai/ha; for pest or weed control at 140 g/ha: 140 g ai/ha; for GR20 TRZSS: probit analysis, dose for growth reduction of 20 percent, 21 days after application, crop
Description: as §1, §2, §3, §4

SMILES | pest or weed control at 35 g/ha [1] [%] | pest or weed control at 70 g/ha [1] [%] | pest or weed control at 140 g/ha [1] [%] | pest or weed control at 35 g/ha [2] [%] | pest or weed control at 70 g/ha [2] [%] | pest or weed control at 140 g/ha [2] [%] | GR50 APESV [2] [g ai/ha] | GR80 APESV [2] [g ai/ha] | pest or weed control at 35 g/ha [3] [%] | pest or weed control at 70 g/ha [3] [%] | pest or weed control at 140 g/ha [3] [%] | GR20 HORSS [3] [g ai/ha] | pest or weed control at 35 g/ha [4] [%] | pest or weed control at 70 g/ha [4] [%] | pest or weed control at 140 g/ha [4] [%] | GR50 KCHSC [4] [g ai/ha] | GR80 KCHSC [4] [g ai/ha] | GR50 LOLSS [5] [g ai/ha] | GR80 LOLSS [5] [g ai/ha] | pest or weed control at 35 g/ha [6] [%] | further results
Nc1c(F)c(-c2ccc(OC(F)F)cc2)nc(C(=O)O)c1Cl [Compound 143] | 0 to 29 | 30 to 44 | 45 to 59 | 60 to 74 | 60 to 74 | 75 to 84 | 31 | 129 | 60 to 74 | 75 to 84 | 85 to 94 | 2 | 30 to 44 | 30 to 44 | 45 to 59 | >140 | >140 | 116 | >140 | 0 to 29 | pest or weed control at 70 g/ha [6]: 60 to 74%; pest or weed control at 140 g/ha [6]: 60 to 74%; GR50 MATSS [6]: 67 g ai/ha; GR80 MATSS [6]: >140 g ai/ha; pest or weed control at 35 g/ha [7]: 45 to 59%; pest or weed control at 70 g/ha [7]: 45 to 59%; pest or weed control at 140 g/ha [7]: 60 to 74%; GR50 SETVI [7]: 52 g ai/ha; GR80 SETVI [7]: >140 g ai/ha; pest or weed control at 35 g/ha [8]: 60 to 74%; pest or weed control at 70 g/ha [8]: 75 to 84%; pest or weed control at 140 g/ha [8]: 75 to 84%; GR20 TRZSS [8]: 0 g ai/ha
Nc1c(F)c(-c2ccc(Br)cc2)nc(C(=O)O)c1Cl [Compound 20] | 45 to 59 | 60 to 74 | 60 to 74 | 85 to 94 | 85 to 94 | 85 to 94 | 2 | 12 | 85 to 94 | 95 to 100 | 95 to 100 | 1 | 95 to 100 | 95 to 100 | 95 to 100 | 2 | 5 | 25 | >140 | 95 to 100 | pest or weed control at 70 g/ha [6]: 95 to 100%; pest or weed control at 140 g/ha [6]: 95 to 100%; GR50 MATSS [6]: 1 g ai/ha; GR80 MATSS [6]: 1 g ai/ha; pest or weed control at 35 g/ha [7]: 95 to 100%; pest or weed control at 70 g/ha [7]: 95 to 100%; pest or weed control at 140 g/ha [7]: 95 to 100%; GR50 SETVI [7]: 4 g ai/ha; GR80 SETVI [7]: 10 g ai/ha; pest or weed control at 35 g/ha [8]: 85 to 94%; pest or weed control at 70 g/ha [8]: 85 to 94%; pest or weed control at 140 g/ha [8]: 85 to 94%; GR20 TRZSS [8]: 1 g ai/ha
